Measurements: US8975259B2, “Compositions and methods for inhibiting G protein signaling” (University of Rochester, priority 2007, dated 2015)

Columns and labels:
[1] = tested on: carrageenan-induced paw edema in mice; test: Carrageenan-induced paw edema and neutrophil abundance
PLCβ2-bGβ1γ2 interaction = target: T1, PLCβ2-bGβ1γ2 interaction (UniProt P54311+P63212); test: PLCβ2 binding to biotinylated Gβ1γ2 (avidin agarose precipitation); conditions: M119 10 μM, M201 1 μM; result in words
T1 construct: made in house; host or cells: bGβ1γ2: Sf9 insect cells
Protocol: Purified PLCβ2 (0.25 ng) was assayed in the presence (▴) or absence (▪) of 100 nM purified Gβ1γ2. […] Assays contained 10 ng of purified p101/p110 PI3Kγ heterodimer with or without 100 nM purified Gβ1γ2. Left panel: (▴) 100 nM Gβ1γ2 or (▪) no βγ. […] M119 or M201 and 25 nM purified GRK2 were added simultaneously to 250 nM biotinylated Gβ1γ2 (bGβ1γ2) immobilized on streptavidin agarose. GRK2 was detected with antibody to GRK2. Data are representative (mean ±SEM, except D) repeated at least three times each. […] 30 nM bGβ1γ2 was incubated with either 30 nM PLCβ2 or PLCβ3 in the presence or absence of M119 or M201 for 16 h at 4° C. before precipitation with avidin agarose and detection with PLCβ2,or Gβ antibodies. […] Same as 4E with PLCβ3.

N-type Ca^2+ channels = test: Norepinephrine-dependent inhibition of N-type Ca2+ channels in rat superior cervical ganglion neurons (patch clamp); type: cell-based; conditions: initial analysis; result in words
Protocol: Norepinephrine inhibits N-type Ca^2+ channels through a Gβγ dependent mechanism in SCG neurons and activates GIRK channels when they are heterologously expressed. Neurons are pretreated with varying concentrations of compounds (either in the bath or included in the patch pipette), and NE dependent inhibition of N-type Ca^2+ channels are measured in the whole cell patch clamp configuration. […] This voltage dependence is diagnostic of Gβγ-mediated modulation. The “facilitation” ratio of the postpulse current to the prepulse current (during which inhibition is strong) provides a quantitative measure of the degree of Gβγ modulation. Uninhibited currents generally have a facilitation ratio around 1 so cells pretreated with compounds that inhibit Gβγ interactions with the channel causes the facilitation ratio to approach 1. The effects on responses to other receptors such as transfected μ-opioid receptors or endogenous M4 muscarinic receptors are also examined. GIRK channel regulation is assessed by microinjecting GIRK1/2 subunits in SCG neurons and measuring K^+ channel regulation by NE at varying concentrations of compound. Basal K^+ channel activity and Ca^2+ channel activity is assessed to look for non-specific effects of Gβγ blockers. […]

[2] = tested on: opioid-induced antinociception in mice; conditions: M119 100 nmol i.c.v. with morphine i.c.v.; Bonacci et al., 2006; cited from earlier work

T1 sequence (P54311 whole entry): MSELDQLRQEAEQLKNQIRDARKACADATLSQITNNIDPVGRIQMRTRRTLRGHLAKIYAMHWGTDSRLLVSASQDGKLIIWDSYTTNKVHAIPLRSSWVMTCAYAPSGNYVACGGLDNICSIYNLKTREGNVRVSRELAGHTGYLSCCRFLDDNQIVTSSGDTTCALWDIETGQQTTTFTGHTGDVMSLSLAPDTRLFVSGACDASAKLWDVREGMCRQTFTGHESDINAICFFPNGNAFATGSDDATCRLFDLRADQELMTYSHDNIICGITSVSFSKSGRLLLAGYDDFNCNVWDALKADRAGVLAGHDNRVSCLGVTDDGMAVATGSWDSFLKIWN
T1 sequence (P63212 2-68 limits assumed): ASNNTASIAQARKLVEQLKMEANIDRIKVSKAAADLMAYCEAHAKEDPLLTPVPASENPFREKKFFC

Row | SMILES | reduction of number of neutrophils in the edematous fluid ([1]; 100 mg/kg i.p., 2 h after carrageenan) | ED50 ([1]; Mus musculus, ip, read-out: ED50 for inhibiting paw edema) [mg/kg] | effect on carrageenan-induced paw edema ([1]; i.p. 1 h before carrageenan, gallein 100 mg/kg, indomethacin 2.5 mg/kg, result in words) | reduction of exudate volume ([1]; i.p. pretreatment, 2 h after carrageenan) | reduction of paw swelling ([1]; oral gavage 30 mg/kg 1 h before carrageenan, 3 h after carrageenan) [%] | effect on paw thickness in the absence of carrageenan ([1]; result in words) | effect on direct binding of bGβ1γ2 to PLCβ2 (PLCβ2-bGβ1γ2 interaction) | effect on NE dependent inhibition of N-type Ca^2+ channels (N-type Ca^2+ channels) | leftward shift / potentiation of morphine dose-response [2] [fold]
1 | O=C(O)c1ccccc1-c1c2ccc(=O)c(O)c-2oc2c(O)c(O)ccc12 (racemic) [Gallein] | approximately half | ~20 | reduced paw edema to levels comparable with that of indomethacin | approximately 75% | 40 | no effect | – | – | –
2 | O=C(O)C1CCCCC1c1c2ccc(=O)c(O)c-2oc2c(O)c(O)ccc12 (stereo not drawn) [Compound M119, cyclohexanecarboxylic acid, 2-(4,5,6-trihydroxy-3-oxo-3H-xanthen-9-yl)-(9cl)] | – | – | – | – | – | – | inhibited | unaffected | 10
